In patent US11472791B2 (Incyte Corporation, priority 2019, dated 2022):

What follows are compounds tested against CDK2/Cyclin E1 (Homo sapiens (Human), UniProt P24941) (assay: CDK2/Cyclin E1 HTRF enzyme activity assay). Settings: 1 mM ATP.
Type: biochemical
Method: Assays are conducted in white 384-well polystyrene plates in a final reaction volume of 8 μL. […] HTRF signals are read after 1 hour at room temperature on a PHERAstar FS plate reader (BMG Labtech). Data is analyzed with IDBS XLFit and GraphPad Prism 5.0 software using a three or four parameter dose response curve to determine IC50 for each compound.

| SMILES | IC50 [µM] |
| --- | --- |
| CC(C)(O)Cn1cc(-c2nc(NC3CCN(S(=O)(=O)CCCNC4CC4)CC3)ncc2C(F)(F)F)cn1 [Example 226, 1-(4-(2-((1-((3-(Cyclopropylamino)propyl)sulfonyl)piperidin-4-yl)amino)-5-(trifluoromethyl)pyrimidin-4-yl)-1H-pyrazol-1-yl)-2-methylpropan-2-ol] | < 0.05 |
| Cn1cnc(S(=O)(=O)N2CCC(Nc3ncc(Cl)c(-c4cnn(CC(F)(F)F)c4)n3)CC2)c1 [Example 40, 5-Chloro-N-(1-((1-methyl-1H-imidazol-4-yl)sulfonyl)piperidin-4-yl)-4-(1-(2,2,2-trifluoroethyl)-1H-pyrazol-4-yl)pyrimidin-2-amine] | < 0.05 |
| CO[C@H]1CC[C@H](n2cc(-c3nc(N[C@H]4CCN(S(=O)(=O)c5cn(C)cn5)C[C@H]4F)ncc3C(F)(F)F)cn2)CC1 [Example 43, N-((3R,4S)-3-Fluoro-1-((1-methyl-1H-imidazol-4-yl)sulfonyl)piperidin-4-yl)-4-(1-((trans)-4-methoxycyclohexyl)-1H-pyrazol-4-yl)-5-(trifluoromethyl)pyrimidin-2-amine] | < 0.05 |
| O=S(=O)(C1CCOCC1)N1CCC(Nc2ncc(C(F)(F)F)c(-c3cnn(C4CCOCC4)c3)n2)CC1 [Example 6, 4-(1-(Tetrahydro-2H-pyran-4-yl)-1H-pyrazol-4-yl)-N-(1-((tetrahydro-2H-pyran-4-yl)sulfonyl)piperidin-4-yl)-5-(trifluoromethyl)pyrimidin-2-amine] | < 0.05 |
| CCN(CC)C1CCC(S(=O)(=O)N2CCC(Nc3ncc(C(F)(F)F)c(-c4cnn(CC(C)(C)O)c4)n3)CC2)CC1 (single isomer, unassigned) [89 (peak 2), 1-(4-(2-((1-((4-(Diethylamino)cyclohexyl)sulfonyl)piperidin-4-yl)amino)-5-(trifluoromethyl)pyrimidin-4-yl)-1H-pyrazol-1-yl)-2-methylpropan-2-ol] | < 0.05 |
| CN1CCC(n2cc(-c3nc(NC4CCN(S(C)(=O)=O)CC4)ncc3F)c(C(F)(F)F)n2)CC1 [Example 17, 5-Fluoro-4-(1-(1-methylpiperidin-4-yl)-3-(trifluoromethyl)-1H-pyrazol-4-yl)-N-(1-(methylsulfonyl)piperidin-4-yl)pyrimidin-2-amine] | < 0.05 |
| Cn1cnc(S(=O)(=O)N2CCC(Nc3ncc(C(F)(F)F)c(-c4cnn(CC(F)(F)F)c4)n3)CC2)c1 [Example 25, N-(1-((1-Methyl-1H-imidazol-4-yl)sulfonyl)piperidin-4-yl)-4-(1-(2,2,2-trifluoroethyl)-1H-pyrazol-4-yl)-5-(trifluoromethyl)pyrimidin-2-amine] | < 0.05 |
| N#CCS(=O)(=O)N1CCC(Nc2ncc(C(F)(F)F)c(-c3cnn(C4CCOCC4)c3)n2)CC1 [Example 4, 2-((4-((4-(1-(Tetrahydro-2H-pyran-4-yl)-1H-pyrazol-4-yl)-5-(trifluoromethyl)pyrimidin-2-yl)amino)piperidin-1-yl)sulfonyl)acetonitrile] | < 0.05 |
| CC(=O)N1CCN(Cc2ccc(-n3cc(-c4nc(N[C@H]5CCN(S(=O)(=O)c6cn(C)cn6)C[C@H]5F)ncc4C(F)(F)F)cn3)c(C)c2)CC1 [Example 104, 1-(4-(4-(4-(2-(((3R,4S)-3-Fluoro-1-((1-methyl-1H-imidazol-4-yl)sulfonyl)piperidin-4-yl)amino)-5-(trifluoromethyl)pyrimidin-4-yl)-1H-pyrazol-1-yl)-3-methylbenzyl)piperazin-1-yl)ethan-1-one] | < 0.05 |
| CN1CCC(S(=O)(=O)N2CCC(Nc3ncc(C(F)(F)F)c(-c4cnn(CC(C)(C)O)c4)n3)CC2)CC1 [Example 87, 2-Methyl-1-(4-(2-((1-((1-methylpiperidin-4-yl)sulfonyl)piperidin-4-yl)amino)-5-(trifluoromethyl)pyrimidin-4-yl)-1H-pyrazol-1-yl)propan-2-ol] | < 0.05 |
| CC(C)(O)Cn1cc(-c2nc(NC3CCN(S(=O)(=O)C4CC4)CC3)ncc2Cl)cn1 [Example 56, 1-(4-(5-Chloro-2-((1-(cyclopropylsulfonyl)piperidin-4-yl)amino)pyrimidin-4-yl)-1H-pyrazol-1-yl)-2-methylpropan-2-ol] | < 0.05 |
| Cc1nn(C2CCN(C)CC2)cc1-c1nc(NC2CCN(S(C)(=O)=O)CC2)ncc1F [Example 15, 5-Fluoro-4-(3-methyl-1-(1-methylpiperidin-4-yl)-1H-pyrazol-4-yl)-N-(1-(methylsulfonyl)piperidin-4-yl)pyrimidin-2-amine] | 0.05 to 0.2 |
| CC(C)S(=O)(=O)N1CCC(Nc2ncc(C(F)(F)F)c(-c3cnn([C@H]4C[C@@](C)(N)C4)c3)n2)CC1 [Example 45, 4-(1-((1s,3s)-3-Amino-3-methylcyclobutyl)-1H-pyrazol-4-yl)-N-(1-(isopropylsulfonyl)piperidin-4-yl)-5-(trifluoromethyl)pyrimidin-2-amine] | < 0.05 |
| CC(C)(O)Cn1cc(-c2nc(NC3CCN(S(=O)(=O)CCCN4CC[C@@H](O)C4)CC3)ncc2C(F)(F)F)cn1 [Example 224, (R)-1-(3-((4-((4-(1-(2-Hydroxy-2-methylpropyl)-1H-pyrazol-4-yl)-5-(trifluoromethyl)pyrimidin-2-yl)amino)piperidin-1-yl)sulfonyl)propyl)pyrrolidin-3-ol] | < 0.05 |
| CN[C@H]1C[C@@H](n2cc(-c3nc(NC4CCN(S(=O)(=O)c5ccccn5)CC4)ncc3C(F)(F)F)cn2)C1 [Example 49, 4-(1-((1s,3s)-3-(Methylamino)cyclobutyl)-1H-pyrazol-4-yl)-N-(1-(pyridin-2-ylsulfonyl)piperidin-4-yl)-5-(trifluoromethyl)pyrimidin-2-amine] | < 0.05 |

Second part, the compound after the results:

| IC50 [µM] | SMILES |
| --- | --- |
| < 0.05 | CCS(=O)(=O)N1CCC(Nc2ncc(C#N)c(-c3cnn(-c4ccc(CN[C@H]5CC[C@@](C)(O)CC5)cc4Cl)c3)n2)CC1 [Example 175, 4-(1-(2-Chloro-4-((((1s,4s)-4-hydroxy-4-methylcyclohexyl)amino)methyl)phenyl)-1H-pyrazol-4-yl)-2-((1-(ethylsulfonyl)piperidin-4-yl)amino)pyrimidine-5-carbonitrile] |
| < 0.05 | CCNCc1ccc(-n2cc(-c3nc(NC4CCN(S(=O)(=O)c5cn(C)cn5)CC4)ncc3C(F)(F)F)cn2)c(C)n1 [Example 269, 4-(1-(6-((Ethylamino)methyl)-2-methylpyridin-3-yl)-1H-pyrazol-4-yl)-N-(1-((1-methyl-1H-imidazol-4-yl)sulfonyl)piperidin-4-yl)-5-(trifluoromethyl)pyrimidin-2-amine] |
| < 0.05 | Cn1cnc(S(=O)(=O)N2CCC(Nc3ncc(C#N)c(-c4cnn(CC(F)(F)F)c4)n3)CC2)c1 [Example 38, 2-((1-((1-Methyl-1H-imidazol-4-yl)sulfonyl)piperidin-4-yl)amino)-4-(1-(2,2,2-trifluoroethyl)-1H-pyrazol-4-yl)pyrimidine-5-carbonitrile] |
| < 0.05 | CS(=O)(=O)N1CCC(Nc2ncc(C#N)c(-c3cnn(-c4ccc(CN[C@H]5CCC[C@H](O)C5)cc4Cl)c3)n2)CC1 [Example 181, 4-(1-(2-Chloro-4-((((1S,3S)-3-hydroxycyclohexyl)amino)methyl)phenyl)-1H-pyrazol-4-yl)-2((1-(methylsulfonyl)piperidin-4-yl)amino)pyrimidine-5-carbonitrile] |
| < 0.05 | CN1CCN(Cc2ccc(-n3cc(-c4nc(N[C@H]5CCN(S(C)(=O)=O)C[C@H]5F)ncc4C#N)cn3)c(Cl)c2)CC1 [Example 111, 4-(1-(2-Chloro-4-((4-methylpiperazin-1-yl)methyl)phenyl)-1H-pyrazol-4-yl)-2-(((3R,4S)-3-fluoro-1-(methylsulfonyl)piperidin-4-yl)amino)pyrimidine-5-carbonitrile] |
| < 0.05 | COC(=O)N[C@H]1CCC[C@@H]1NCc1ccc(-n2cc(-c3nc(NC4CCN(S(C)(=O)=O)CC4)ncc3C#N)cn2)c(Cl)c1 [Example 281, Methyl ((1,S,2S)-2-((3-chloro-4-(4-(5-cyano-2-((1-(methylsulfonyl)piperidin-4-yl)amino)pyrimidin-4-yl)-1H-pyrazol-1-yl)benzyl)amino)cyclopentyl)carbamate] |
| < 0.05 | [2H]C([2H])([2H])NCc1ccc(-n2cc(-c3nc(N[C@H]4CCN(S(=O)(=O)CC)C[C@H]4F)ncc3C#N)cn2)c(Cl)c1 [Example 144, 4-(1-(2-Chloro-4-(((methyl-d3)amino)methyl)phenyl)-1H-pyrazol-4-yl)-2-(((3R,4S)-1-(ethylsulfonyl)-3-fluoropiperidin-4-yl)amino)pyrimidine-5-carbonitrile] |
| < 0.05 | Cc1cc(CN2CCN(C)CC2)ccc1-n1cc(-c2nc(NC3CCN(S(=O)(=O)C4CC4)CC3)ncc2C#N)cn1 [Example 242, 2-((1-(Cyclopropylsulfonyl)piperidin-4-yl)amino)-4-(1-(2-methyl-4-((4-methylpiperazin-1-yl)methyl)phenyl)-1H-pyrazol-4-yl)pyrimidine-5-carbonitrile] |
| < 0.05 | Cc1cc(CN2CCN(C(C)C)CC2)ccc1-n1cc(-c2nc(NC3CCN(S(=O)(=O)c4cn(C)cn4)CC3)ncc2Cl)cn1 [Example 247, 5-Chloro-4-(1-(4-((4-isopropylpiperazin-1-yl)methyl)-2-methylphenyl)-1H-pyrazol-4-yl)-N-(1-((1-methyl-1H-imidazole-4-yl)sulfonyl)piperidin-4-yl)pyrimidin-2-amine] |
| < 0.05 | CCN1CCN(Cc2ccc(-n3cc(-c4nc(N[C@H]5CCN(S(=O)(=O)c6cn(C)cn6)C[C@H]5C)ncc4C(F)(F)F)cn3)c(C)n2)CC1 [Example 256, 4-(1-(6-((4-Ethylpiperazin-1-yl)methyl)-2-methylpyridin-3-yl)-1H-pyrazol-4-yl)-N-((3R,4S)-3-methyl-1-((1-methyl-1H-imidazol-4-yl)sulfonyl)piperidin-4-yl)-5-(trifluoromethyl)pyrimidin-2-amine] |
| < 0.05 | [2H]C([2H])([2H])NCc1ccc(-n2cc(-c3nc(NC4CCN(S(=O)(=O)c5cnn(C)c5)CC4)ncc3C#N)cn2)c(C)n1 [Example 149, 2-((1-((1-Methyl-1H-pyrazol-4-yl)sulfonyl)piperidin-4-yl)amino)-4-(1-(2-methyl-6-(((methyl-d3)amino)methyl)pyridin-3-yl)-1H-pyrazol-4-yl)pyrimidine-5-carbonitrile] |
